From PMC9768162, “Synthesis of macrocyclic nucleoside antibacterials and their interactions with MraY” (Nature Communications, 2022)
Like-named read-outs stand apart in the source and are kept apart here.

Key:
Test in all cases: Antibacterial activity, MIC by microdilution broth method (CLSI)
[1] = tested on: E. faecium; format: cell-based, Enterococcus faecium
[2] = tested on: S. aureus; format: cell-based, Staphylococcus aureus; conditions: for MIC: Staphylococcus aureus; for MIC (range over strains): clinically isolated MRSA (10 strains)
[3] = tested on: E. faecalis; format: cell-based; conditions: for MIC: Enterococcus faecalis; for MIC (range over strains): clinically isolated E. faecalis (15 strains)
[4] = Enterococcus faecium, ATCC35667, 20 h, E. faecium ATCC 35667, CA-MHB, 37 °C, 20 h, read-out: MIC
[5] = Enterococcus faecium, clinically isolated E. faecium strain 7, read-out: MIC
[6] = ATCC29213, 20 h, S. aureus ATCC 29213, CA-MHB, 37 °C, 20 h
[7] = MRSA, 20 h, S. aureus (MRSA) JE2, CA-MHB, 37 °C, performed once
[8] = MRSA, clinically isolated MRSA #1958
[9] = MRSA, clinically isolated MRSA #2071
[10] = MRSA, clinically isolated MRSA #2110
[11] = MRSA, clinically isolated MRSA #2310
[12] = MRSA, clinically isolated MRSA #2334
[13] = MRSA, clinically isolated MRSA #2931
[14] = MRSA, clinically isolated MRSA #2932
[15] = MRSA, clinically isolated MRSA #2933
[16] = MRSA, clinically isolated MRSA #2934
[17] = MRSA, clinically isolated MRSA #2935
[18] = ATCC 51299 / VRE, E. faecalis (VRE) ATCC 51299
[19] = clinically isolated E. faecalis strain 21
[20] = clinically isolated E. faecalis strain 22
[21] = clinically isolated E. faecalis strain 23
[22] = clinically isolated E. faecalis strain 24
[23] = clinically isolated E. faecalis strain 25
[24] = clinically isolated E. faecalis strain 26
[25] = clinically isolated E. faecalis strain 27
[26] = clinically isolated E. faecalis strain 28
[27] = clinically isolated E. faecalis strain 29
[28] = clinically isolated E. faecalis strain 30
[29] = clinically isolated E. faecalis strain 31
[30] = clinically isolated E. faecalis strain 32
[31] = clinically isolated E. faecalis strain 33
[32] = clinically isolated E. faecalis strain 34
[33] = clinically isolated E. faecalis strain 35
[34] = Enterococcus faecium, ATCC 51559 / VRE, E. faecium (VRE) ATCC 51559, read-out: MIC
[35] = Enterococcus faecium, ATCC 51858 / VRE, E. faecium (VRE) ATCC 51858, read-out: MIC
[36] = Enterococcus faecium, clinically isolated E. faecium strain 1, read-out: MIC
[37] = Enterococcus faecium, clinically isolated E. faecium strain 2, read-out: MIC
[38] = Enterococcus faecium, clinically isolated E. faecium strain 3, read-out: MIC
[39] = Enterococcus faecium, clinically isolated E. faecium strain 4, read-out: MIC
[40] = Enterococcus faecium, clinically isolated E. faecium strain 5, read-out: MIC
[41] = Enterococcus faecium, clinically isolated E. faecium strain 8, read-out: MIC
[42] = Enterococcus faecium, clinically isolated E. faecium strain 9, read-out: MIC
[43] = Enterococcus faecium, clinically isolated E. faecium strain 10, read-out: MIC
[44] = Enterococcus faecium, clinically isolated E. faecium strain 11, read-out: MIC
[45] = Enterococcus faecium, clinically isolated E. faecium strain 13, read-out: MIC
[46] = Enterococcus faecium, clinically isolated E. faecium strain 14, read-out: MIC
[47] = Enterococcus faecium, clinically isolated E. faecium strain 15, read-out: MIC

CC1(C)S[C@@H]2[C@H](NC(=O)[C@H](N)c3ccccc3)C(=O)N2[C@H]1C(=O)O [Ampicillin]
16 to 32 µg/mL: MIC (range over strains) [2]
0.5 to 1 µg/mL: MIC (range over strains) [3]
32 µg/mL: MIC [2, 8] | MIC [2, 9] | MIC [2, 11] | MIC [2, 13] | MIC [2, 14] | MIC [2, 15]
> 128 µg/mL: MIC ([1]; Enterococcus faecium, clinically isolated E. faecium strain 1) | MIC ([1]; Enterococcus faecium, clinically isolated E. faecium strain 3) | MIC ([1]; Enterococcus faecium, clinically isolated E. faecium strain 9) | MIC ([1]; Enterococcus faecium, clinically isolated E. faecium strain 10) | MIC ([1]; Enterococcus faecium, clinically isolated E. faecium strain 13)
16 µg/mL: MIC [2, 10] | MIC [2, 12] | MIC [2, 16] | MIC [2, 17]
128 µg/mL: MIC ([1]; Enterococcus faecium, ATCC 51559 / VRE, E. faecium (VRE) ATCC 51559) | MIC ([1]; Enterococcus faecium, ATCC 51858 / VRE, E. faecium (VRE) ATCC 51858) | MIC ([1]; Enterococcus faecium, clinically isolated E. faecium strain 2) | MIC ([1]; Enterococcus faecium, clinically isolated E. faecium strain 4) | MIC ([1]; Enterococcus faecium, clinically isolated E. faecium strain 5) | MIC ([1]; Enterococcus faecium, clinically isolated E. faecium strain 8) | MIC ([1]; Enterococcus faecium, clinically isolated E. faecium strain 11) | MIC ([1]; Enterococcus faecium, clinically isolated E. faecium strain 14) | MIC ([1]; Enterococcus faecium, clinically isolated E. faecium strain 15)
4 µg/mL: MIC [2, 7]
1 µg/mL: MIC [1, 4] | MIC [2, 6] | MIC [3, 18] | MIC [3, 19] | MIC [3, 20] | MIC [3, 21] | MIC [3, 23] | MIC [3, 24] | MIC [3, 25] | MIC [3, 26] | MIC [3, 27] | MIC [3, 29] | MIC [3, 30] | MIC [3, 31] | MIC [3, 32]
0.5 µg/mL: MIC [1, 5] | MIC [3, 22] | MIC [3, 28] | MIC [3, 33]

C[C@H]1COc2c(N3CCN(C)CC3)c(F)cc3c(=O)c(C(=O)O)cn1c23 [Levofloxacin]
0.5 µg/mL: MIC [1, 5] | MIC [3, 19] | MIC [3, 23] | MIC [3, 24] | MIC [3, 27]
1 µg/mL: MIC [3, 18] | MIC [3, 20] | MIC [3, 21] | MIC [3, 22] | MIC [3, 25] | MIC [3, 26] | MIC [3, 28] | MIC [3, 29] | MIC [3, 30] | MIC [3, 31] | MIC [3, 32]
0.13 µg/mL: MIC [2, 6] | MIC [2, 9]
2 µg/mL: MIC [3, 33]
8 µg/mL: MIC [2, 7]
4 µg/mL: MIC [1, 4] | MIC [1, 35]
32 µg/mL: MIC [1, 40]
> 32 µg/mL: MIC [1, 36] | MIC [1, 37] | MIC [1, 38] | MIC [1, 39] | MIC [1, 41] | MIC [1, 42] | MIC [1, 43] | MIC [1, 44] | MIC [1, 45] | MIC [1, 46] | MIC [1, 47] | MIC [2, 8] | MIC [2, 10] | MIC [2, 11] | MIC [2, 12] | MIC [2, 14] | MIC [2, 15] | MIC [2, 16] | MIC [2, 17]
0.5 to 2 µg/mL: MIC (range over strains) [3]
16 µg/mL: MIC [1, 34] | MIC [2, 13]

CN[C@H](CC(C)C)C(=O)N[C@H]1C(=O)N[C@@H](CC(N)=O)C(=O)N[C@H]2C(=O)N[C@H]3C(=O)N[C@H](C(=O)N[C@H](C(=O)O)c4cc(O)cc(O)c4-c4cc3ccc4O)[C@H](O)c3ccc(c(Cl)c3)Oc3cc2cc(c3O[C@@H]2O[C@H](CO)[C@@H](O)[C@H](O)[C@H]2O[C@H]2C[C@](C)(N)[C@H](O)[C@H](C)O2)Oc2ccc(cc2Cl)[C@H]1O [Vancomycin]
0.5 to 1 µg/mL: MIC (range over strains) ([1]; clinically isolated E. faecium (14 strains))
0.5 µg/mL: MIC [1, 4] | MIC [1, 5] | MIC [1, 46]
1 µg/mL: MIC [1, 36] | MIC [1, 37] | MIC [1, 38] | MIC [1, 39] | MIC [1, 40] | MIC [1, 41] | MIC [1, 42] | MIC [1, 43] | MIC [1, 44] | MIC [1, 45] | MIC [1, 47] | MIC [2, 6] | MIC [2, 7] | MIC [2, 8] | MIC [2, 9] | MIC [2, 13] | MIC [2, 15] | MIC [2, 16] | MIC [3, 19] | MIC [3, 20] | MIC [3, 21] | MIC [3, 22] | MIC [3, 23] | MIC [3, 24] | MIC [3, 25] | MIC [3, 26] | MIC [3, 27] | MIC [3, 28] | MIC [3, 30] | MIC [3, 32] | MIC [3, 33]
1 to 2 µg/mL: MIC (range over strains) [2]
1 to 4 µg/mL: MIC (range over strains) [3]
> 128 µg/mL: MIC [1, 34]
4 µg/mL: MIC [3, 29]
>128 µg/mL: MIC ([1]; E. faecium (VRE) ATCC 51559)
2 µg/mL: MIC [2, 10] | MIC [2, 11] | MIC [2, 12] | MIC [2, 14] | MIC [2, 17] | MIC [3, 31]
128 µg/mL: MIC [1, 35] | MIC [3, 18]
